Data on 2 compounds can be found in US8263762B2, “Alkoxy-carbonyl-amino-alkynyl-adenosine compounds and derivatives thereof as A2AR agonists” (Dogwood Pharmaceuticals, Inc., priority 2009, dated 2012).

One may read the Ki as a dissociation constant, usually derived from enzyme kinetics or from competition with a known ligand.

SMILES strings stand for the structures. Bounds are passed on as bounds.

The test system of one test is Japanese white rabbits. Briefly: Test for intraocular pressure reduction using Japanese white rabbits. Type of test: in vivo. Here is the method: (1) Test for intraocular pressure reduction using Japanese white rabbits: In order to examine the usefulness of the present compound as a preventive or therapeutic agent for glaucoma or ocular hypertension, an intraocular pressure lowering effect when the present compound was administered to Japanese white rabbits (sex: male) was evaluated and studied. As the test compound, Compound A was used. […]
Administration method and measurement method: Just before any of the test liquids was administered, one drop of 0.4% oxybuprocaine hydrochloride eye drop was instilled into both eyes of each experimental animal to achieve local anesthesia, and the intraocular pressure was measured using an applanation tonometer. This intraocular pressure was determined as an initial intraocular pressure. […]
After the test liquid was administered, the intraocular pressure of both eyes of each experimental animal was measured at predetermined times (at 1, 2, 4 and 6 hours after administration). […]
Calculation of intraocular pressure reduction degree: The intraocular pressure reduction degree of each test compound administration group at each measurement time was calculated from the following calculation formula. Among the obtained intraocular pressure reduction degrees at respective measurement times, the maximum value was determined as a maximum intraocular pressure reduction degree. […]

The target in test [1] is T1, recombinant human A2A receptors (Homo sapiens, UniProt P29274).
T1 construct: made in house; host or cells: Sf9 insect cells, viral (baculovirus) infection; membranes
T1 sequence (P29274 whole entry): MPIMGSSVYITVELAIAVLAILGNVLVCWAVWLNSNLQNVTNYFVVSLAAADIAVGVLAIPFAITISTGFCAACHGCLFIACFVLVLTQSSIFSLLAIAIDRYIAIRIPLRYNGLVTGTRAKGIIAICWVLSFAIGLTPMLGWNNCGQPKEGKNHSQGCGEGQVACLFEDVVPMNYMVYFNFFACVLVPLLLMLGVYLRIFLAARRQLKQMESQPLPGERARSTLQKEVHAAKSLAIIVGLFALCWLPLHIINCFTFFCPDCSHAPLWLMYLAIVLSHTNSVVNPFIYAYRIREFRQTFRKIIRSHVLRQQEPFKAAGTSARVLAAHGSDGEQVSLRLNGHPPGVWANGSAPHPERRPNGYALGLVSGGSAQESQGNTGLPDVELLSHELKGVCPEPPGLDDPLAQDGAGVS
Briefly: Radioligand binding assay, A2A receptor. The settings on record: recombinant human A2A receptors in Sf9 cell membranes; competition binding. How it is done:
Cell culture and membrane preparation. Sf9 cells were cultured in Grace's medium supplemented with 10% fetal bovine serum, 2.5 μg/ml amphotericin B and 50 μg/ml gentamycin in an atmosphere of 50% N2/50% O2. Viral infection was performed at a density of 2.5×10^6 cells/mL with a multiplicity of infection of two for each virus used. Infected cells were harvested 3 days post-infection and washed twice in insect PBS (PBS pH 6.3). Cells were then resuspended in lysis buffer (20 mM HEPES pH 7.5, 150 mM NaCl, 3 mM MgCl2, 1 mM β-mercaptoethanol (BME), 5 μg/mL leupeptin, 5 μg/mL pepstatin A, 1 μg/mL aprotinin, and 0.1 mM PMSF) and snap frozen for storage at −80° C. Cells were thawed on ice, brought to 30 mL total volume in lysis buffer, and burst by N2 cavitation (600 psi for 20 minutes). A low-speed centrifugation was performed to remove any unlysed cells (1000×g for 10 minutes), followed by a high-speed centrifugation (17,000×g for 30 minutes). The pellet from the final centrifugation was homogenized in buffer containing 20 mM HEPES pH 8, 100 mM NaCl, 1% glycerol, 2 μg/mL leupeptin, 2 μg/mL pepstatin A, 2 μg/mL Aprotinin, 0.1 mM PMSF, and 10 μM GDP using a small glass homogenizer followed by passage through a 26 gauge needle. Membranes were aliquoted, snap frozen in liquid N2, and stored at −80° C. Membranes from cells stably expressing the human A1 AR(CHO K1 cells) or A3 AR (HEK 293 cells) were prepared as described (Robeva et al., 1996).
Radioligand Binding Assays. Radioligand binding to recombinant human A2A receptors in Sf9 cell membranes was performed using either the radiolabeled agonist, ^125I-APE (Luthin et al., 1995) or the radiolabeled antagonist, ^125I-ZM241385 (^125I-ZM). To detect the high affinity, GTPγS-sensitive state of A1 and A3 AR, we used the agonist, ^125I-ABA (Linden et al., 1985; Linden et al., 1993). Binding experiments were performed in triplicate with 5 μg (A2A) or 25 μg (A1 and A3) membrane protein in a total volume of 0.1 mL HE buffer (20 mM HEPES and 1 mM EDTA) withl U/mL adenosine deaminase and 5 mM MgCl2 with or without 50 μM GTPγS. Membranes were incubated with radioligands at room temperature for three hours (for agonists) or two hours (for antagonists) in Millipore Multiscreen® 96-well GF/C filter plates and assays were terminated by rapid filtration on a cell harvester (Brandel, Gaithersburg, Md.) followed by 4×150 μL washes over 30 seconds with ice cold 10 mM Tris-HCl, pH 7.4, 10 mM MgCl2. Nonspecific binding was measured in the presence of 50 μM NECA. Competition binding assays were performed as described (Robeva et al., 1996) using 0.5-1 nM ^125I-APE, ^125I-ZM241385, or ^125I-ABA. Sometimes it is important to change pipette tips following each serial dilution to prevent transfer on tips of potent hydrophobic compounds. The Ki values for competing compound binding to a single site were derived from IC50 values with correction for radioligand and competing compound depletion as described previously (Linden, 1982). • Linden J (1982) Calculating the Dissociation Constant of an Unlabeled Compound From the Concentration Required to Displace Radiolabel Binding by 50%. J Cycl Nucl Res 8: 163-172. • Linden J, Patel A and Sadek S (1985) [^125I]Aminobenzyladenosine, a New Radioligand With Improved Specific Binding to Adenosine Receptors in Heart. Circ Res 56: 279-284. • Linden J, Taylor H E, Robeva A S, Tucker A L, Stehle J H, Rivkees S A, Fink J S and Reppert S M (1993) Molecular Cloning and Functional Expression of a Sheep A3 Adenosine Receptor with Widespread Tissue Distribution. Mol Pharmacol 44: 524-532. • Luthin D R, Olsson R A, Thompson R D, Sawmiller D R and Linden J (1995) Characterization of Two Affinity States of Adenosine A2A Receptors With a New Radioligand, 2-[2-(4-Amino-3-[^125I]Iodophenyl)Ethylamino] Adenosine. Mol Pharmacol 47: 307-313. • Robeva A S, Woodard R, Luthin D R, Taylor H E and Linden J (1996) Double Tagging Recombinant A1- and A2A-Adenosine Receptors With Hexahistidine and the FLAG Epitope. […]

In the next test the test system is human neutrophils. Briefly: Neutrophil oxidative activity (luminol enhanced chemiluminescence). The format is cell-based. The settings on record: oxidative activity assay, purified human neutrophils, fMLP-stimulated chemiluminescence, read-out: Functional Activity. An excerpt: Chemiluminescence Methods: Luminol enhanced chemiluminescence, a measure of neutrophil oxidative activity, is dependent upon both superoxide production and mobilization of the granule enzyme myeloperoxidase. The light is emitted from unstable high-energy oxygen species such as hypochlorous acid and singlet oxygen generated by activated neutrophils.
Purified human neutrophils (2×10^6/ml) suspended in Hanks balanced salt solution containing 0.1% human serum albumin (HA), adenosine deaminase (1 U/mL) and rolipram (100 nM) were incubated (37 C) in a water bath for 15 min with or without rhTNF (10 U/ml). Following incubation 100 µL aliquots of the PMN were transferred to wells (White walled clear bottom 96 well tissue culture plates Costar #3670; 2 wells/condition) containing […] and luminol (final concentration […]) with or without adenosine agonist (final agonist concentrations 0.01-1000 nM). The plate was incubated 5 min (37 C) and then fMLP (50 l in HA; final concentration […]) was added to all wells.
Peak chemiluminescence was determined with a Victor 1420 Multilabel Counter in the chemiluminescence mode using the Wallac Workstation software. Data are presented as peak chemiluminescence as percent of activity in the absence of an adenosine agonist. The EC50 was determined using PRISM software. All compounds were tested with PMNs from three separate donors.
Effect of A2A Agonists on Neutrophil Oxidative Activity: f-met-leu-phe (fMLP), luminol, superoxide dismutase, cytochrome C, fibrinogen, adenosine deaminase, and trypan blue were obtained from Sigma Chemical. Ficoll-hypaque was purchased from ICN (Aurora, Ohio), and Cardinal Scientific (Santa Fe, N. Mex.) and Accurate Chemicals and Scientific (Westerbury, N.Y.). Endotoxin (lipopolysaccharide; E. coli K235) was from List Biologicals (Campbell, Calif.). Hanks balanced salt solution (HBSS), and limulus amebocyte lysate assay kit were from BioWittaker (Walkersville, Md.). Human serum albumin (HSA) was from Cutter Biological (Elkhart, Ind.). Recombinant human tumor necrosis factor-α was supplied by Dianippon Pharmaceutical Co. Ltd. (Osaka, Japan). ZM241385 (4-(2-[7-amino-2-(2-furyl)[1,2,4]triazolo[2,3-a][1,3,5]triazin-5-yl amino]ethyl)phenol) was a gift from Simon Poucher, Zeneca Pharmaceuticals, Cheshire, UK. Stock solutions (1 mM and 10 mM in DMSO) were made and stored at −20° C.
Human neutrophil preparation: Purified neutrophils (98% neutrophils and >95% viable by trypan blue exclusion) containing <1 platelet per 5 neutrophils and <50 pg/ml endotoxin (limulus amebocyte lysate assay) were obtained from normal heparinized (10 U/ml) venous blood by a one step Ficoll-hypaque separation procedure (A. Ferrante et al., J. Immunol. Meth., 36, 109 (1980)). […]

With `COC(=O)N(C)CC#Cc1nc(N)c2ncn([C@@H]3O[C@H](C(=O)NC4CC4)C(O)C3O)c2n1` (stereo partly shown) [Compound A], the “intraocular pressure lowering action” value with Japanese white rabbits (Japanese white rabbits, eye drop) is on record as “exhibited an intraocular pressure lowering action”. In addition, the “Maximum intraocular pressure reduction degree” value in the test on Japanese white rabbits (male Japanese white rabbits, 0.01% (w/v) eye drop, single dose into one eye, maximum of 1, 2, 4 and 6 hours, average of 5 cases) amounted to 3.9 mmHg.
For the compound `CCOCCCN(CC#Cc1nc(N)c2ncn([C@@H]3O[C@H](C(=O)NC4CC4)C(O)C3O)c2n1)C(=O)OC` (stereo partly shown) [Example 17, N-Cyclopropyl 2-{3-[4-((3-ethoxypropyl)(methoxycarbonyl)amino)]propyn-1-yl}adenosine-5′-uronamide], the Ki in test [1] was 11 to 100 nM. Further, the EC50 with human neutrophils was more than 100 nM.
